From patent US10525041B2, “Fluoroalkyl-substituted aryltriazole derivatives and uses thereof” (BAYER PHARMA AKTIENGESELLSCHAFT, priority 2016, dated 2020) come the findings set out here.

Structures are written as SMILES. pIC50: −log10 of the molar value.

For one test, the target named is T1, human V1a receptor (Homo sapiens, UniProt P37288).
T1 construct: expressed in transfected cells; host or cells: CHO K1 (ATCC), also stably transfected with a modified aequorin
Kind of test: Cellular in vitro assay for vasopressin receptor activity, V1a cell line (aequorin luminescence). Conditions: for pIC50: CHO cell line transfected with human V1a receptor, agonist [Arg8]-vasopressin at EC50 concentration, read-out: IC50hV1a; for ratio IC50 hV2/hV1a: ratio of the IC50 on human V2 to the IC50 on human V1a. It is filed as cell-based. In outline:
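CHO K1 cells stably expressing human V1a receptor with aequorin photoprotein, loaded overnight with coelenterazine. Compounds preincubated 10 min at various concentrations, then challenged with [Arg^8]-vasopressin at EC50 concentration. Calcium-driven luminescence read immediately; IC50 values derived.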

The next test addresses T2, human V2 receptor (Homo sapiens, UniProt P30518).
T2 construct: expressed in transfected cells; host or cells: CHO K1 (ATCC) line expressing firefly luciferase under a CRE-responsive promoter
Kind of test: Cellular in vitro assay for vasopressin receptor activity, V2 cell line (CRE-luciferase). Conditions: CHO cell line transfected with human V2 receptor; agonist [Arg8]-vasopressin at EC50 concentration, 3 hours; read-out: IC50hV2. It is filed as cell-based.

T1 sequence (P37288 whole entry): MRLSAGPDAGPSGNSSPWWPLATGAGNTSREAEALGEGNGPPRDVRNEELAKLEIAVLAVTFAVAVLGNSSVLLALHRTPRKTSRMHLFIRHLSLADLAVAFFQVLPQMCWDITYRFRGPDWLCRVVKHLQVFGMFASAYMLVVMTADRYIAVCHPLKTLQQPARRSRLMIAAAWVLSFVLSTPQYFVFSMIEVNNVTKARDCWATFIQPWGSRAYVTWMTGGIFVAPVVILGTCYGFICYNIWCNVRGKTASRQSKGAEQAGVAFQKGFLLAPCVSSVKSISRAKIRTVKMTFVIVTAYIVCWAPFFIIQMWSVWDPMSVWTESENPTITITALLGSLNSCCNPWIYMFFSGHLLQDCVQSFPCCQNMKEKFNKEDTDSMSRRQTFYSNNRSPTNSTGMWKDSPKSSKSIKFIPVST
T2 sequence (P30518 whole entry): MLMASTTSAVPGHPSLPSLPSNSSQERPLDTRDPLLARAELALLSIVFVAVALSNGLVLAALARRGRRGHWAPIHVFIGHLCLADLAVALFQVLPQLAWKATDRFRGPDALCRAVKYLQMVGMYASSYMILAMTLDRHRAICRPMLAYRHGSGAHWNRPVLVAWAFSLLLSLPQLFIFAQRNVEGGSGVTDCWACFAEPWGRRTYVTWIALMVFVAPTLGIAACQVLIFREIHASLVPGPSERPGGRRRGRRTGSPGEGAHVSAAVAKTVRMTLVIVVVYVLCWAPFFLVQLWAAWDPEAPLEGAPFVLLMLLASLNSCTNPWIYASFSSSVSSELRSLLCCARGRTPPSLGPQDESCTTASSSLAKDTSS

With `O=c1n(Cc2nc(C(F)F)n(-c3cccc(Cl)c3)n2)nc(-c2ccc(Cl)cc2)n1C[C@H](O)C(F)(F)F` [Example 50, 5-(4-Chlorophenyl)-2-{[1-(3-chlorophenyl)-5-(difluoromethyl)-1H-1,2,4-triazol-3-yl]methyl}-4-[(2S)-3,3,3-trifluoro-2-hydroxypropyl]-2,4-dihydro-3H-1,2,4-triazol-3-one], the pIC50 was 7.44 at human V1a receptor and 8.59 on human V2 receptor. In addition, the “ratio IC50 hV2/hV1a” value at human V1a receptor is reported as 0.1.
On the same counts, the results for `O=c1n(Cc2nc(C(F)F)n(-c3ccccc3Cl)n2)nc(-c2ccc(Cl)cc2)n1C[C@H](O)C(F)(F)F` [Example 51, 5-(4-Chlorophenyl)-2-{[1-(2-chlorophenyl)-5-(difluoromethyl)-1H-1,2,4-triazol-3-yl]methyl}-4-[(2S)-3,3,3-trifluoro-2-hydroxypropyl]-2,4-dihydro-3H-1,2,4-triazol-3-one] are 8.83, 8.66 and 1.5.
Taken in the same sequence, the figures for `O=c1n(Cc2nc(C(F)F)n(-c3cccc(F)c3)n2)nc(-c2ccc(Cl)cc2)n1C[C@H](O)C(F)(F)F` [Example 52, 5-(4-Chlorophenyl)-2-{[5-(difluoromethyl)-1-(3-fluorophenyl)-1H-1,2,4-triazol-3-yl]methyl}-4-[(2S)-3,3,3-trifluoro-2-hydroxypropyl]-2,4-dihydro-3H-1,2,4-triazol-3-one] were 7.97, 8.23 and 0.5.
Taken in the same sequence, the figures for `CC(F)(F)c1nc(Cn2nc(-c3ccc(Cl)cc3)n(C[C@H](O)C(F)(F)F)c2=O)nn1-c1ccccc1Cl` [Example 53, 5-(4-Chlorophenyl)-2-{[1-(2-chlorophenyl)-5-(1,1-difluoroethyl)-1H-1,2,4-triazol-3-yl]methyl}-4-[(2S)-3,3,3-trifluoro-2-hydroxypropyl]-2,4-dihydro-3H-1,2,4-triazol-3-one] were 9.40, 8.94 and 2.9.
Take `CC(F)(F)c1nc(Cn2nc(-c3ccc(Cl)cc3)n(C[C@H](O)C(F)(F)F)c2=O)nn1-c1cnccc1Cl` [Example 54, 5-(4-Chlorophenyl)-2-{[1-(4-chloropyridin-3-yl)-5-(1,1-difluoroethyl)-1H-1,2,4-triazol-3-yl]methyl}-4-[(2S)-3,3,3-trifluoro-2-hydroxypropyl]-2,4-dihydro-3H-1,2,4-triazol-3-one]: on human V1a receptor, the pIC50 is 9.03 and the “ratio IC50 hV2/hV1a” value turned out to be 12.2. On human V2 receptor, the pIC50 is 7.95.
Turning to `CC(F)(F)c1nc(Cn2nc(-c3ccc(Cl)cc3)n(C[C@H](O)C(F)(F)F)c2=O)nn1-c1cccc(Cl)c1` [Example 55, 5-(4-Chlorophenyl)-2-{[1-(3-chlorophenyl)-5-(1,1-difluoroethyl)-1H-1,2,4-triazol-3-yl]methyl}-4-[(2S)-3,3,3-trifluoro-2-hydroxypropyl]-2,4-dihydro-3H-1,2,4-triazol-3-one], the pIC50 at human V1a receptor is 7.22; at human V2 receptor, 8.28. For the same compound, on human V1a receptor, the “ratio IC50 hV2/hV1a” value is 0.1.
Taken in the same sequence, the figures for `CC(F)(F)c1nc(Cn2nc(-c3ccc(Cl)cc3)n(C[C@H](O)C(F)(F)F)c2=O)nn1-c1cccc(F)c1` [Example 56, 5-(4-Chlorophenyl)-2-{[5-(1,1-difluoroethyl)-1-(3-fluorophenyl)-1H-1,2,4-triazol-3-yl]methyl}-4-[(2S)-3,3,3-trifluoro-2-hydroxypropyl]-2,4-dihydro-3H-1,2,4-triazol-3-one] were 7.81, 8.28 and 0.3.
On the same counts, the results for `CC(F)(F)c1nc(Cn2nc(-c3ccc(Cl)cc3)n(C[C@H](O)C(F)(F)F)c2=O)nn1-c1cnccc1C(F)(F)F` [Example 57, 5-(4-Chlorophenyl)-2-({5-(1,1-difluoroethyl)-1-[4-(trifluoromethyl)pyridin-3-yl]-1H-1,2,4-triazol-3-yl}methyl)-4-[(2S)-3,3,3-trifluoro-2-hydroxypropyl]-2,4-dihydro-3H-1,2,4-triazol-3-one] are 8.70, 7.61 and 12.3.
On the same counts, the results for `CC(F)(F)c1nc(Cn2nc(-c3ccc(Cl)cc3)n(C[C@H](O)C(F)(F)F)c2=O)nn1-c1ncccc1Cl` [Example 58, 5-(4-Chlorophenyl)-2-{[1-(3-chloropyridin-2-yl)-5-(1,1-difluoroethyl)-1H-1,2,4-triazol-3-yl]methyl}-4-[(2S)-3,3,3-trifluoro-2-hydroxypropyl]-2,4-dihydro-3H-1,2,4-triazol-3-one] are 9.00, 8.47 and 3.4.
As for `CC(F)(F)c1nc(Cn2nc(-c3ccc(Cl)cc3)n(C[C@H](O)C(F)(F)F)c2=O)nn1-c1ncccc1C(F)(F)F` [Example 59, 5-(4-Chlorophenyl)-2-({5-(1,1-difluoroethyl)-1-[3-(trifluoromethyl)pyridin-2-yl]-1H-1,2,4-triazol-3-yl}methyl)-4-[(2S)-3,3,3-trifluoro-2-hydroxypropyl]-2,4-dihydro-3H-1,2,4-triazol-3-one], on human V1a receptor, the pIC50 was 8.33 and the “ratio IC50 hV2/hV1a” value is 5.7. For the same compound, the pIC50 at human V2 receptor was 7.57.
On the same counts, the results for `CC(F)(F)c1nc(Cn2nc(-c3ccc(Cl)cc3)n(C[C@H](O)C(F)(F)F)c2=O)nn1-c1ccccc1C(F)(F)F` [Example 60, 5-(4-Chlorophenyl)-2-({5-(1,1-difluoroethyl)-1-[2-(trifluoromethyl)phenyl]-1H-1,2,4-triazol-3-yl}methyl)-4-[(2S)-3,3,3-trifluoro-2-hydroxypropyl]-2,4-dihydro-3H-1,2,4-triazol-3-one] are 8.76, 6.7 and 7.94.
On the same counts, the results for `CC(F)(F)c1nc(Cn2nc(-c3ccc(Cl)cc3)n(C[C@H](O)C(F)(F)F)c2=O)nn1-c1ccccc1OC(F)(F)F` [Example 61, 5-(4-Chlorophenyl)-2-({5-(1,1-difluoroethyl)-1-[2-(trifluoromethoxy)phenyl]-1H-1,2,4-triazol-3-yl}methyl)-4-[(2S)-3,3,3-trifluoro-2-hydroxypropyl]-2,4-dihydro-3H-1,2,4-triazol-3-one] are 8.38, 10.7 and 7.35.
As to `CCc1ccccc1-n1nc(Cn2nc(-c3ccc(Cl)cc3)n(C[C@H](O)C(F)(F)F)c2=O)nc1C(C)(F)F` [Example 62, 5-(4-Chlorophenyl)-2-{[5-(1,1-difluoroethyl)-1-(2-ethylphenyl)-1H-1,2,4-triazol-3-yl]methyl}-4-[(2S)-3,3,3-trifluoro-2-hydroxypropyl]-2,4-dihydro-3H-1,2,4-triazol-3-one], on human V1a receptor, the pIC50 was 8.66 and the “ratio IC50 hV2/hV1a” value is 1.0. Also, the pIC50 at human V2 receptor was 8.65.
Take `CC(F)(F)c1nc(Cn2nc(-c3ccc(Cl)cc3)n(C[C@H](O)C(F)(F)F)c2=O)nn1-c1ccccc1OC(F)F` [Example 63, 5-(4-Chlorophenyl)-2-({5-(1,1-difluoroethyl)-1-[2-(difluoromethoxy)phenyl]-1H-1,2,4-triazol-3-yl}methyl)-4-[(2S)-3,3,3-trifluoro-2-hydroxypropyl]-2,4-dihydro-3H-1,2,4-triazol-3-one]: on human V1a receptor, the pIC50 is 8.68 and the “ratio IC50 hV2/hV1a” value was 3.3. The pIC50 at human V2 receptor was 8.16.
On the same counts, the results for `Cc1ccccc1-n1nc(Cn2nc(-c3ccc(Cl)cc3)n(C[C@H](O)C(F)(F)F)c2=O)nc1C(C)(F)F` [Example 64, 5-(4-Chlorophenyl)-2-{[5-(1,1-difluoroethyl)-1-(2-methylphenyl)-1H-1,2,4-triazol-3-yl]methyl}-4-[(2S)-3,3,3-trifluoro-2-hydroxypropyl]-2,4-dihydro-3H-1,2,4-triazol-3-one] are 8.97, 1.6 and 8.77.
Taken in the same sequence, the figures for `CC(F)(F)c1nc(Cn2nc(-c3ccc(Cl)cc3)n(C[C@H](O)C(F)(F)F)c2=O)nn1-c1ccccc1[N+](=O)[O-]` [Example 65, 5-(4-Chlorophenyl)-2-{[5-(1,1-difluoroethyl)-1-(2-nitrophenyl)-1H-1,2,4-triazol-3-yl]methyl}-4-[(2S)-3,3,3-trifluoro-2-hydroxypropyl]-2,4-dihydro-3H-1,2,4-triazol-3-one] were 8.52, 3.7 and 7.94.
Taken in the same sequence, the figures for `CC(F)(F)c1nc(Cn2nc(-c3ccc(Cl)cc3)n(C[C@H](O)C(F)(F)F)c2=O)nn1-c1ccccc1S(N)(=O)=O` [Example 66, 2-[3-({3-(4-Chlorophenyl)-5-oxo-4-[(2S)-3,3,3-trifluoro-2-hydroxypropyl]-4,5-dihydro-1H-1,2,4-triazol-1-yl}methyl)-5-(1,1-difluoroethyl)-1H-1,2,4-triazol-1-yl]benzenesulfonamide] were 7.24, 5.9 and 6.47.
As to `CCOc1ccccc1-n1nc(Cn2nc(-c3ccc(Cl)cc3)n(C[C@H](O)C(F)(F)F)c2=O)nc1C(C)(F)F` [Example 67, 5-(4-Chlorophenyl)-2-{[5-(1,1-difluoroethyl)-1-(2-ethoxyphenyl)-1H-1,2,4-triazol-3-yl]methyl}-4-[(2S)-3,3,3-trifluoro-2-hydroxypropyl]-2,4-dihydro-3H-1,2,4-triazol-3-one], at human V1a receptor, the pIC50 is 8.74 and the “ratio IC50 hV2/hV1a” value is recorded as 4.4. The pIC50 at human V2 receptor was 8.11.
